{"source": "patent US8283373B2", "about": "“Inhibitors of cytosolic phospholipase A2” (Pfizer Inc., priority 2005, dated 2012)", "key": {"[1]": {"tested_on": "TXB2", "test": "Rat Whole Blood Assay (A23187-stimulated TXB2)", "assay_type": "cell-based", "conditions": "Rattus norvegicus; A23187 5 μM", "procedure": "Fresh blood was collected in heparinized tubes by cardiac puncture of male Sprague-Dawley rats. Aliquots of blood (0.6 mL) were incubated with either 6 μL solvent (DMSO), or 6 μL of test compounds at various concentrations for 15 minutes at 37° C. This was followed by incubation of the blood with 6 μL of calcium ionophore, A23187 (Sigma C-7522) diluted in DMSO for 10 min at 37° C. The final concentration of A23187 was 5 μM. DMSO (6 μL) was added in the unstimulated controls. The reactions were stopped by mixing 60 μL cold EDTA to give a final concentration of 20 mM. The blood was centrifuged at 6,500 rpm for 10 min on a microcentrifuge to obtain plasma. A 70 μL aliquot of plasma was mixed with 400 μL cold methanol for protein precipitation. After incubation at −80° C. for 30 min, the supernatant was obtained by centrifuging at 6,500 rpm for 10 min, and was assayed for TXB2 according to the manufacturer's procedure (Assay Designs, Inc.'s ELISA kit #900-002)."}, "[2]": {"target": "T1, cPLA2α (Homo sapiens, UniProt P47712)", "T1 sequence (P47712 1-749)": "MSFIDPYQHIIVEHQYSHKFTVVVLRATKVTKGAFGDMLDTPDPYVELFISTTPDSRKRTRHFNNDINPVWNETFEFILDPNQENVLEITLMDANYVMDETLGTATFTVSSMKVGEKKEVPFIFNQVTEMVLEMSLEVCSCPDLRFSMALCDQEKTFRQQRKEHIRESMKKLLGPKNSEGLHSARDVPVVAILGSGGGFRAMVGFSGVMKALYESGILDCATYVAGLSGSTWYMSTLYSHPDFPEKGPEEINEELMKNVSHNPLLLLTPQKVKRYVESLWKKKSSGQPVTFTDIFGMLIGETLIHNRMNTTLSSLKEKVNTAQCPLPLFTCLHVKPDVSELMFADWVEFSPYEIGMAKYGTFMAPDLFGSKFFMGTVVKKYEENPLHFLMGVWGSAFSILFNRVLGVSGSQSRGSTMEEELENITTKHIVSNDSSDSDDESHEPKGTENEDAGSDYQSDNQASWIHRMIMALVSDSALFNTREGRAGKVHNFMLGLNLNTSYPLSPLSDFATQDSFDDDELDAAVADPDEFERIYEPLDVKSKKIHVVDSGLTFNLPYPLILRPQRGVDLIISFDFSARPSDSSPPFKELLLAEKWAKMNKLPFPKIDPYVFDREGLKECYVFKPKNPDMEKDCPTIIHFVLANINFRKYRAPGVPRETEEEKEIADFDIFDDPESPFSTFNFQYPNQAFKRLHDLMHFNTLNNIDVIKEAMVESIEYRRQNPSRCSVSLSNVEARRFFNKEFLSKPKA", "test": "GLU Micelle Assay", "assay_type": "biochemical", "procedure": "The assay was carried in a 96-well format using a fluorescent plate reader with a 355 nm excitation filter and a 460 nm emission filter (Lab Systems Fluoroscan II, Helsinki, Finland). The assay buffer contained 940 μM Triton X-100, 50 mM Hepes pH 7.4, 0.3 mM EDTA, 1 mM CaCl2 and 300 mM KCl. DTPC (1,2-O-tetradecyl-sn-glycero-3-phosphocholine, Avanti) at a final concentration of 120 μM was added the day of the experiment and GLU (7-Hydroxycoumarinyl-γ-linolenate, Biomol Research Lab, Inc.) at a final concentration of 90 μM was added immediately prior to each assay.\nCompounds (10 μL) dissolved in DMSO were placed in duplicate wells of a black 96-well plate. Wells corresponding to the positive and negative controls contained DMSO without inhibitors. Just prior to the experiment, 200 μL assay buffer containing 90 μM GLU and 120 μM DTPC was added to all wells in the assay plate. Assay buffer (50 μL) was added to the negative, and 50 μL cPLA2α solution ([…] in assay buffer) was added to all other wells to initiate the reaction. The final concentration of enzyme was 1 μg/ml. The content of each well was mixed gently during the addition of the enzyme, and the plate was rapidly transferred to the fluorescent plate reader. The increase in fluorescence was read every 4 min for 84 min. The slope of the resulting line was determined and the inhibition was calculated using the equation below: Percent Inhibition=[1−(slope with inhibitor−slope negative control)/(slope positive control−slope negative control)]×100 Rat Whole Blood Assay"}, "[3]": {"tested_on": "primary cerebellar granule neurons", "test": "Oxygen-glucose deprivation (OGD) in cultured cerebellar granule neurons", "assay_type": "cell-based, rat", "conditions": "for percent cell death (lactate dehydrogenase release), Avg.: OGD 2 hours, control 14, OGD 51", "procedure": "Primary cerebellar granule neurons were isolated from P5-8 rat pups. Briefly, cerebelli were collected and pooled in ice-cold phosphate buffer saline (PBS) without Ca^2+ and Mg^2+. The tissue was finely chopped and transferred to an enzymatic dissociation media containing 20 IU/ml papain in Earle's balanced salt solution (Worthington Biochemical, Freehold, N.J.) and incubated for 30 minutes at 37° C. After enzymatic dissociation, the papain solution was aspirated and the tissue mechanically triturated with a fire-polished Pasteur pipette in complete media [Neurobasal Medium with B-27 supplement (Gibco, Grand Island, N.Y.), penicillin/streptomycin, aphidicolin, glutamate, potassium chloride] containing 2,000 IU/ml DNase and 10 mg/ml ovomucoid protease inhibitor. Single-cell suspensions in complete media were plated on pre-coated poly-L-ornithine/laminin 24-well plates (Becton-Dickinson, Bedford, Mass.) at a density of\n5.0×10^5 cells/well. Cells were maintained for two weeks prior to experimentation.\nCultures were treated with Compound A at various concentrations, 60 minutes before OGD. Media was removed and replaced with deoxygenated buffer in an anaerobic chamber (80% nitrogen, 10% hydrogen, 10% carbon dioxide gas mixture). Fresh Compound A, Example 34 or Example 41 was added to the cultures and maintained in the anaerobic chamber for 2 hours. At the end of the incubation, fresh media was exchanged and fresh Compound A was added. Cultures were maintained for an additional 24 hours in a normoxic incubator. Cell death was determined by measuring lactate dehydrogenase release into the media 24 hours later (Roche Biochemicals). In the table below, values are shown for the control, OGD, various concentrations of Compound A, and MK801, a NMDA receptor antagonist, which is a positive control."}}}
{"molecule": "O=C(O)c1ccc(CCCc2c(CCNS(=O)(=O)Cc3c([N+](=O)[O-])cccc3C(F)(F)F)n(C(c3ccccc3)c3ccccc3)c3ccc(Cl)cc23)cc1", "note": "[Example 27, 4-(3-{5-chloro-1-(diphenylmethyl)-2-[2-({[2-nitro-6-(trifluoromethyl)benzyl]sulfonyl}amino)ethyl]-1H-indol-3-yl}propyl)benzoic acid]", "values": [{"measurement": "IC50", "setting": "[1]", "value": 30, "unit": "nM"}, {"measurement": "IC50", "setting": "[2]", "value": 38, "unit": "nM"}]}
{"molecule": "O=C(O)c1ccc(CCCc2c(CCNS(=O)(=O)Cc3ccccc3F)n(C(c3ccccc3)c3ccccc3)c3ccc(Cl)cc23)cc1", "note": "[Example 28, 4-{3-[5-chloro-1-(diphenylmethyl)-2-(2-{[(2-fluorobenzyl)sulfonyl]amino}ethyl)-1H-indol-3-yl]propyl}benzoic acid]", "values": [{"measurement": "IC50", "setting": "[1]", "value": 30, "unit": "nM"}, {"measurement": "IC50", "setting": "[2]", "value": 30, "unit": "nM"}]}
{"molecule": "O=C(O)c1ccc(CCCc2c(CCNS(=O)(=O)Cc3ccccc3-c3ccccc3)n(C(c3ccccc3)c3ccccc3)c3ccc(Cl)cc23)cc1", "note": "[Example 29, 4-{3-[2-(2-{[(biphenyl-2-ylmethyl)sulfonyl]amino}ethyl)-5-chloro-1-(diphenylmethyl)-1H-indol-3-yl]propyl}benzoic acid]", "values": [{"measurement": "IC50", "setting": "[1]", "value": 50, "unit": "nM"}, {"measurement": "IC50", "setting": "[2]", "value": 18, "unit": "nM"}]}
{"molecule": "O=C(O)c1ccc(CCCc2c(CCNS(=O)(=O)Cc3ccccc3-c3ccncc3)n(C(c3ccccc3)c3ccccc3)c3ccc(Cl)cc23)cc1", "note": "[Example 30, 4-{3-[5-chloro-1-(diphenylmethyl)-2-(2-{[(2-pyridin-4-ylbenzyl)sulfonyl]amino}ethyl)-1H-indol-3-yl]propyl}benzoic acid]", "values": [{"measurement": "IC50", "setting": "[1]", "value": 60, "unit": "nM"}, {"measurement": "IC50", "setting": "[2]", "value": 21, "unit": "nM"}]}
{"molecule": "O=C(O)c1ccc(CCCc2c(CCNS(=O)(=O)Cc3ccccc3-c3cccnc3)n(C(c3ccccc3)c3ccccc3)c3ccc(Cl)cc23)cc1", "note": "[Example 31, 4-{3-[5-chloro-1-(diphenylmethyl)-2-(2-{[(2-pyridin-3-ylbenzyl)sulfonyl]amino}ethyl)-1H-indol-3-yl]propyl}benzoic acid]", "values": [{"measurement": "IC50", "setting": "[1]", "value": 40, "unit": "nM"}, {"measurement": "IC50", "setting": "[2]", "value": 16, "unit": "nM"}]}
{"molecule": "O=C(O)c1ccc(CCCc2c(CCNS(=O)(=O)Cc3ccccc3-c3ccsc3)n(C(c3ccccc3)c3ccccc3)c3ccc(Cl)cc23)cc1", "note": "[Example 32, 4-(3-{5-chloro-1-(diphenylmethyl)-2-[2-({[2-(3-thienyl)benzyl]sulfonyl}amino)ethyl]-1H-indol-3-yl}propyl)benzoic acid]", "values": [{"measurement": "IC50", "setting": "[1]", "value": 50, "unit": "nM"}, {"measurement": "IC50", "setting": "[2]", "value": 13, "unit": "nM"}]}
{"molecule": "Cc1noc(C)c1-c1ccccc1CS(=O)(=O)NCCc1c(CCCc2ccc(C(=O)O)cc2)c2cc(Cl)ccc2n1C(c1ccccc1)c1ccccc1", "note": "[Example 33, 4-{3-[5-chloro-2-[2-({[2-(3,5-dimethylisoxazol-4-yl)benzyl]sulfonyl}amino)ethyl]-1-(diphenylmethyl)-1H-indol-3-yl]propyl}benzoic acid]", "values": [{"measurement": "IC50", "setting": "[1]", "value": 20, "unit": "nM"}, {"measurement": "IC50", "setting": "[2]", "value": 22, "unit": "nM"}]}
{"molecule": "CN(C)c1ccc(-c2ccccc2CS(=O)(=O)NCCc2c(CCCc3ccc(C(=O)O)cc3)c3cc(Cl)ccc3n2C(c2ccccc2)c2ccccc2)cc1", "note": "[Example 35, 4-{3-[5-chloro-2-{2-[({[4′-(dimethylamino)biphenyl-2-yl]methyl}sulfonyl)amino]ethyl}-1-(diphenylmethyl)-1H-indol-3-yl]propyl}benzoic acid]", "values": [{"measurement": "IC50", "setting": "[1]", "value": 50, "unit": "nM"}, {"measurement": "IC50", "setting": "[2]", "value": 27, "unit": "nM"}]}
{"molecule": "O=C(O)c1ccc(CCCc2c(CCNS(=O)(=O)Cc3ccccc3-c3ccccc3OC(F)(F)F)n(C(c3ccccc3)c3ccccc3)c3ccc(Cl)cc23)cc1", "note": "[Example 36, 4-[3-(5-chloro-1-(diphenylmethyl)-2-{2-[({[2′-(trifluoromethoxy)biphenyl-2-yl]methyl}sulfonyl)amino]ethyl}-1H-indol-3-yl)propyl]benzoic acid]", "values": [{"measurement": "IC50", "setting": "[1]", "value": 70, "unit": "nM"}, {"measurement": "IC50", "setting": "[2]", "value": 31, "unit": "nM"}]}
{"molecule": "N#Cc1ccccc1-c1ccccc1CS(=O)(=O)NCCc1c(CCCc2ccc(C(=O)O)cc2)c2cc(Cl)ccc2n1C(c1ccccc1)c1ccccc1", "note": "[Example 37, 4-{3-[5-chloro-2-[2-({[(2′-cyanobiphenyl-2-yl)methyl]sulfonyl}amino)ethyl]-1-(diphenylmethyl)-1H-indol-3-yl]propyl}benzoic acid]", "values": [{"measurement": "IC50", "setting": "[1]", "value": 30, "unit": "nM"}, {"measurement": "IC50", "setting": "[2]", "value": 25, "unit": "nM"}]}
{"molecule": "O=C(O)CCc1ccc(S(=O)(=O)CCc2c(CCNS(=O)(=O)Cc3ccccc3C(F)(F)F)n(C(c3ccccc3)c3ccccc3)c3ccc(Cl)cc23)cc1", "note": "[Example 38, 3-{4-[(2-{5-chloro-1-(diphenylmethyl)-2-[2-({[2-(trifluoromethyl)benzyl]sulfonyl}amino)ethyl]-1H-indol-3-yl}ethyl)sulfonyl]phenyl}propanoic acid]", "values": [{"measurement": "IC50", "setting": "[1]", "value": 10, "unit": "nM"}, {"measurement": "IC50", "setting": "[2]", "value": 7, "unit": "nM"}]}
{"molecule": "CC(c1ccccc1C(F)(F)F)S(=O)(=O)NCCc1c(CCS(=O)(=O)c2ccc(CCC(=O)O)cc2)c2cc(Cl)ccc2n1C(c1ccccc1)c1ccccc1", "note": "(centres unmarked) [Example 39, 3-(4-{[2-(5-chloro-1-(diphenylmethyl)-2-{2-[({1-[2-(trifluoromethyl)phenyl]ethyl}sulfonyl)amino]ethyl}-1H-indol-3-yl)ethyl]sulfonyl}phenyl)propanoic acid]", "values": [{"measurement": "IC50", "setting": "[1]", "value": 20, "unit": "nM"}, {"measurement": "IC50", "setting": "[2]", "value": 68, "unit": "nM"}]}
{"molecule": "O=C(O)c1ccc(CCCc2c(CCNS(=O)(=O)Cc3ccccc3O)n(C(c3ccccc3)c3ccccc3)c3ccc(Cl)cc23)cc1", "note": "[Example 40, 4-{3-[5-chloro-1-(diphenylmethyl)-2-(2-{[(2-hydroxybenzyl)sulfonyl]amino}ethyl)-1H-indol-3-yl]propyl}benzoic acid]", "values": [{"measurement": "IC50", "setting": "[1]", "value": 60, "unit": "nM"}, {"measurement": "IC50", "setting": "[2]", "value": 72, "unit": "nM"}]}
{"molecule": "O=C(O)c1ccc(CCCc2c(CCNS(=O)(=O)Cc3ccccc3-c3cccc4ncccc34)n(C(c3ccccc3)c3ccccc3)c3ccc(Cl)cc23)cc1", "note": "[Example 41, 4-{3-[5-chloro-1-(diphenylmethyl)-2-(2-{[(2-quinolin-5-ylbenzyl)sulfonyl]amino}ethyl)-1H-indol-3-yl]propyl}benzoic acid]", "values": [{"measurement": "protection of cultured neurons from OGD-induced cell death", "setting": "[3]", "value": "effective in protecting cultured neurons from OGD-induced cell death"}, {"measurement": "percent cell death (lactate dehydrogenase release), Avg.", "setting": "[3]; 0.1 μM", "value": 40, "unit": "%"}, {"measurement": "percent cell death (lactate dehydrogenase release), Avg.", "setting": "[3]; 0.3 μM", "value": 33, "unit": "%"}, {"measurement": "percent cell death (lactate dehydrogenase release), Avg.", "setting": "[3]; 1 μM", "value": 30, "unit": "%"}, {"measurement": "percent cell death (lactate dehydrogenase release), Avg.", "setting": "[3]; 3 μM", "value": 24, "unit": "%"}, {"measurement": "IC50", "setting": "[2]", "value": 22, "unit": "nM"}]}
